{"source": "paper PMC11672637", "about": "“7-O-Carboxylic Acid-Substituted 3-O-Alkyl Difluoroquercetin; An Aztreonam-Potentiating Agent Against Carbapenemase-Producing Pseudomonas aeruginosa Through Simultaneous Inhibition of Metallo-β-Lactamase and Efflux Pump” (Antibiotics, 2024)", "key": {"NDM-1": {"target": "T1, NDM-1 (Klebsiella pneumoniae, UniProt C7C422)", "T1 construct": "purchased RayBiotech, Inc. 230-00554", "T1 sequence (C7C422 29-270, looked up, species assumed)": "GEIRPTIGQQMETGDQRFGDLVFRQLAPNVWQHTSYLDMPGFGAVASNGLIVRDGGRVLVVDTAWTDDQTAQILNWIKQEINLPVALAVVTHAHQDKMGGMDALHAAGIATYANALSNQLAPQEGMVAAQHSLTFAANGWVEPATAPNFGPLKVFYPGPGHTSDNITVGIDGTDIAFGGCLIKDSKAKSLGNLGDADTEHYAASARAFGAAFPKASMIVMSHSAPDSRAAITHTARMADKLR", "assay": "β-lactamase inhibition assay (imipenem)", "format": "biochemical", "settings": "imipenem substrate; read-out: BLi, IC50 NDM-1", "method": "(§1) Recombinant AmpC, OXA-48 (residues 23–265) and VIM-2 (residues 27–266) were prepared from Escherichia coli based on previously established protocols. KPC-2 and NDM-1 are commercially available from LifeSpan Biosciences, Inc., Seattle, WA, USA (LS-G26598) and RayBiotech, Inc., Peachtree Corners, GA, USA (230-00554), respectively. For β-lactamase inhibition assay, in a 96-well plate, 70–0.1 μM (in PBS) of the synthesized compounds (1~14) (100 μL) were mixed with diluted β-lactamase stock (2% DMSO in 200 μL). In a separate 96-well plate, a substrate of AmpC, KPC-2, OXA-48, and VIM-2 (nitrocefin) and NDM-1 (imipenem) were added into each well (final concentrations of 70 μM for nitrocefin and 100 μM for imipenem). After incubation at 37 °C for 20 min, the mixture of the synthesized compounds (1~14) and β-lactamase in one plate was added to the substrate in the other plate. Enzymatic hydrolysis of the substrate was then monitored by a Cytation 5 imaging multimode reader (BioTek Instruments Inc., Winooski, VT, USA) at 486 nm and 300 nm for nitrocefin and imipenem, respectively, for 15 min. The rates of hydrolysis in the presence of the inhibitors were determined when the reaction rate plateaued. Comparison of the enzymatic hydrolysis rates in the presence and the absence of inhibitors (100%) provided the percentage of enzyme inhibition at each concentration of the synthesized compounds. The IC50 values were obtained after non-linear regression (sigmoidal dose-responses) by GraphPad Prism 5 (GraphPad Software, Boston, MA, USA)."}, "[1]": {"tested_on": "efflux pump activity in P. aeruginosa (PA-017, blaNDM)", "assay": "EtBr accumulation, inhibition of efflux pump activity", "format": "cell-based", "settings": "EtBr fluorescence compared with positive control CCCP", "method": "The NDM-producing P. aeruginosa clinical isolate (PA-017, blaNDM) (5 mL, LB medium) was grown to reach the mid-log phase. After centrifugation at 3500 rpm for 15 min, the bacterial pellet was washed twice with PBS and resuspended to OD600 = 0.3 in PBS. To each well of a flat-bottomed black 96-well plate, 182 µL of the bacterial suspension, 4 µL of glucose [final concentration = 0.4% (w/v)], 4 µL of the synthesized compounds or positive control CCCP, and 10 µL of EtBr (final concentration = 1 µg/mL) were added. The plate was incubated at 37 °C, and fluorescence emission from EtBr (λex 480 nm/λem 630 nm) was recorded every 2 min (for 60 min) using a Cytation 5 imaging multi-mode reader (BioTek Instruments, Inc., Winooski, VT, USA)."}, "AmpC": {"target": "AmpC", "assay": "β-lactamase inhibition assay (nitrocefin)", "format": "biochemical", "settings": "nitrocefin substrate; read-out: BLi, IC50 AmpC", "method": "as §1"}, "VIM-2": {"target": "T2, VIM-2 (Escherichia coli, UniProt Q5U7L7)", "T2 construct": "VIM-2 (residues 27–266); made in house; host or cells: Escherichia coli", "assay": "β-lactamase inhibition assay (nitrocefin)", "format": "biochemical", "settings": "nitrocefin substrate; read-out: BLi, IC50 VIM-2", "method": "as §1"}, "KPC-2": {"target": "T3, KPC-2 (Klebsiella pneumoniae, UniProt Q9F663)", "T3 construct": "purchased LifeSpan Biosciences, Inc. LS-G26598", "T3 sequence (Q9F663 25-293, looked up, species assumed)": "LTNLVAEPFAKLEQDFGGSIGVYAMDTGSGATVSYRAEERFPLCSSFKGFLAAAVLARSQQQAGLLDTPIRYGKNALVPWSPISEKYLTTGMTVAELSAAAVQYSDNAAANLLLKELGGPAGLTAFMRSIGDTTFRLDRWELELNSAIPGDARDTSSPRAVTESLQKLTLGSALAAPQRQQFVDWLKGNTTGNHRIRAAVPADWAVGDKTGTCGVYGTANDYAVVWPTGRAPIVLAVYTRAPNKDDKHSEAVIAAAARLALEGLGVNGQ", "assay": "β-lactamase inhibition assay (nitrocefin)", "format": "biochemical", "settings": "nitrocefin substrate; read-out: BLi, IC50 KPC-2", "method": "as §1"}, "OXA-48": {"target": "T4, OXA-48 (Klebsiella pneumoniae, UniProt Q6XEC0)", "T4 construct": "OXA-48 (residues 23–265); made in house; host or cells: Escherichia coli", "T4 sequence (Q6XEC0 23-265 limits assumed)": "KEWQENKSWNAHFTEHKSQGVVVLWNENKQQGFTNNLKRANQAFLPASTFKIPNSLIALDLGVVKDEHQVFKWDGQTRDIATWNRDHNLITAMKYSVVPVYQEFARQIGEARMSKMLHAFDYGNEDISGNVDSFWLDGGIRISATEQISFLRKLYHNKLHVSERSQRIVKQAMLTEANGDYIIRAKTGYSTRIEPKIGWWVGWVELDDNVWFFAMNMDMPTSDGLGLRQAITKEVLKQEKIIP", "assay": "β-lactamase inhibition assay (nitrocefin)", "format": "biochemical", "settings": "nitrocefin substrate; read-out: BLi, IC50 OXA-48", "method": "as §1"}, "human red blood cells": {"tested_on": "human red blood cells", "assay": "Hemolytic activity assay", "format": "cell-based", "settings": "human RBCs; 4–128 mg/L tested", "method": "Washed human red blood cells (hRBCs, Innovative Research, Novi, MI, USA) were diluted 1:100 in HEPES-NaOH buffered saline (HBS) [150 mM NaCl/5 mM HEPES-NaOH (pH 7.4)]. Samples (100 μL) were taken from the serially diluted (4 to 128 mg/L) compound 5 and mixed with 250 μL of hRBCs in 1.5 mL microcentrifuge tube. After incubation at 37 °C for 30 min, the tubes were centrifuged at 3000 rpm for 5 min. The supernatant (50 μL), thus obtained, was transferred to transparent, flat-bottom 96-well plates and absorption was measured at 405 nm (Cytation 5 imaging multimode reader, BioTek Instruments, Inc., Winooski, VT, USA). In some cases, 1% TritonX-100 or HBS buffer was used instead of the compound 5 as positive and negative controls, respectively. The percentage of hemolysis was calculated as follows: % Hemolysis = (ODtest − ODHBS)/[…] × 100%."}, "[2]": {"assay": "In vivo pharmacokinetic study", "design": "species or system Sprague–Dawley (SD) rats", "settings": "rat; for Vd: iv, 5 mg/kg; for MRT last: read-out: MRT0–last; for MRT inf: read-out: MRT0–∞", "method": "After administration of compound 5 (5 mg/kg intravenously and 10 mg/kg orally) to specific pathogen-free (SPF) male Sprague–Dawley (SD) rats (Medicilon Colony: 999M-017), samples of serum were taken at eight different time points (0.083, 0.25, 0.5, 1, 2, 4, 8, and 24 h). Analysis of the samples were performed by liquid chromatography with tandem mass spectrometry (LC-MS/MS). A standard set of parameters were calculated using non-compartmental analysis modules in FDA certified pharmacokinetic program Phoenix WinNonlin 7.0 (Pharsight, Mountain View, CA, USA)."}, "[3]": {"settings": "male, Sprague-Dawley, serum, Intravenous (5 mg/kg)"}, "[4]": {"settings": "male, Sprague-Dawley, serum, Oral (10 mg/kg)"}}, "note": "Where two headings read alike, the source gives them in different places."}
{"smiles": "CC(C)(C)CCOc1c(-c2ccc(F)c(F)c2)oc2cc(OCC(=O)O)cc(O)c2c1=O", "note": "[Compound 5, 2-((2-(3,4-Difluorophenyl)-3-(3,3-dimethylbutoxy)-5-hydroxy-4-oxo-4H-chromen-7-yl)oxy)acetic Acid]", "values": [{"measurement": "IC50", "setting": "NDM-1", "value": "6.1 ± 0.4", "unit": "µM"}, {"measurement": "EPi (inhibition of efflux pump activity)", "setting": "[1]", "value": "↑ ^g"}, {"measurement": "IC50", "setting": "AmpC", "value": "> 50", "unit": "µM"}, {"measurement": "IC50", "setting": "VIM-2", "value": "> 100", "unit": "µM"}, {"measurement": "IC50", "setting": "KPC-2", "value": "> 50", "unit": "µM"}, {"measurement": "IC50", "setting": "OXA-48", "value": "> 100", "unit": "µM"}, {"measurement": "Concentration up to which no noticeable toxic effect (hemolysis)", "setting": "human red blood cells", "value": "≥ 128000", "unit": "ng/mL"}, {"measurement": "Vd", "setting": "[2]; male, Sprague-Dawley, serum, Intravenous (5 mg/kg), read-out: Vss", "value": "0.65 ± 0.09", "unit": "L/kg"}, {"measurement": "Vd", "setting": "[2]; male, Sprague-Dawley, serum, Intravenous (5 mg/kg), read-out: Vz", "value": "1.84 ± 0.76", "unit": "L/kg"}, {"measurement": "Vd", "setting": "[2]; male, Sprague-Dawley, serum, intravenous 5 mg/kg, read-out: Vss", "value": 0.65, "unit": "L/kg"}, {"measurement": "AUC(0-inf)", "setting": "[2]; [3]", "value": "3610 ± 590", "unit": "ng·h/mL"}, {"measurement": "AUC(0-t)", "setting": "[2]; [3]", "value": "3600 ± 590", "unit": "ng·h/mL"}, {"measurement": "C0", "setting": "[2]; [3]", "value": "11100 ± 2390", "unit": "ng/mL"}, {"measurement": "half-life", "setting": "[2]; [3]", "value": "0.92 ± 0.42", "unit": "h"}, {"measurement": "clearance", "setting": "[2]; male, Sprague-Dawley, serum, Intravenous (5 mg/kg), read-out: Cl (systemic clearance)", "value": 23.6, "unit": "mL/min/kg"}, {"measurement": "Cmax", "setting": "[2]; male, Sprague-Dawley, serum, Intravenous (5 mg/kg), read-out: Cmax", "value": 7510, "unit": "ng/mL"}, {"measurement": "MRT last", "setting": "[2]; [3]", "value": "0.45 ± 0.02", "unit": "h"}, {"measurement": "MRT inf", "setting": "[2]; [3]", "value": "0.46 ± 0.02", "unit": "h"}, {"measurement": "AUC(0-inf)", "setting": "[2]; [4]", "value": "1280 ± 540", "unit": "ng·h/mL"}, {"measurement": "AUC(0-t)", "setting": "[2]; [4]", "value": "1250 ± 570", "unit": "ng·h/mL"}, {"measurement": "Tmax", "setting": "[2]; [4]", "value": 2, "unit": "h"}, {"measurement": "half-life", "setting": "[2]; [4]", "value": "1.28 ± 0.53", "unit": "h"}, {"measurement": "Cmax", "setting": "[2]; male, Sprague-Dawley, serum, Oral (10 mg/kg), read-out: Cmax", "value": "290 ± 140", "unit": "ng/mL"}, {"measurement": "bioavailability", "setting": "[2]; male, Sprague-Dawley, serum, Oral (10 mg/kg), read-out: F (bioavailability)", "value": "17.3 ± 7.88", "unit": "%"}, {"measurement": "MRT last", "setting": "[2]; [4]", "value": "2.87 ± 0.25", "unit": "h"}, {"measurement": "MRT inf", "setting": "[2]; [4]", "value": "3.13 ± 0.35", "unit": "h"}, {"measurement": "Cmax", "setting": "[2]; Intravenous (5 mg/kg)", "value": "7510 ± 1340", "unit": "ng/mL"}]}
